Data on 14 molecules can be found in patent US9962398B2, “Sulfonamide compounds for inhibition of metastatic tumor growth” (Welichem Biotech Inc., priority 2010, dated 2018).

Molecules are shown by their SMILES. Like-named read-outs stand apart in the source and are kept apart here.

The test system of one data set is 4T1 cells. The experiment in a line: Measurement of extracellular pH in hypoxia, 4T1 cells. In kind it is cell-based, mouse. The settings on record: 72 h, 400 uM MST-017. How it is done: (§1) Changes in solution pH were assessed using procedures published previously (29, 42, 43). In brief, cells were plated at appropriate density (1×10^4 cells/cm2 for 4T1 cells and its transfected derivatives, 2×10^4 cells/cm2 for 66cl4 cells, 1×10^4 cells/cm2 for 67NR cells and its transfected derivatives) in 60 mm dishes and allowed to recover overnight. A standard volume of 3 ml of fresh media/dish was then added and cells were incubated in normoxia (air+5% CO2) or hypoxia (1% O2 and 5% CO2 balanced with nitrogen) for 72 h. Care was taken to ensure that cultures grown in normoxia and hypoxia were at similar confluence and contained similar cell numbers at the time of medium collection. Collected spent media was maintained at 37° C. and pH was measured immediately using a digital pH meter. […] Cells were harvested on ice for qRT-PCR and Western blot analysis.
(§2) Ureido sulfonamides are new.
Cells were cultured for 72 h in the presence of 10 μM MST-017. Shown in FIG. 9 are representative images of the FITC-tagged inhibitor bound to the cell lines in the indicated conditions. […] For each cell line, changes in the extracellular pH in hypoxia were assessed relative to the baseline extracellular pH measured in parallel cultures grown in normoxia. *P<0.001 with a two-sided Student's t-test, compared to cells cultured without inhibitor.

A further data set relates to 66cl4 cells. The experiment in a line: Measurement of extracellular pH in hypoxia, 66cl4 cells. In kind it is cell-based, mouse. The settings on record: 72 h, 600 uM MST-017. How it is done: as §1, §2
Shown in FIG. 9 are representative images of the FITC-tagged inhibitor bound to the cell lines in the indicated conditions. […] For each cell line, changes in the extracellular pH in hypoxia were assessed relative to the baseline extracellular pH measured in parallel cultures grown in normoxia. *P<0.001 with a two-sided Student's t-test, compared to cells cultured without inhibitor.

The subject of the next data set is 4T1 primary tumors. The settings on record: mouse, in vivo.
A further data set concerns 67NR-derived tumors. The settings on record: mouse, in vivo.
Another data set has as its system 4T1 mammary tumor cells. The experiment in a line: Experimental metastasis assay, intravenous 4T1 cells, bioluminescence. In kind it is in vivo, mouse. How it is done: For studies involving genetic depletion of CAIX, 4T1 or 67NR cells (5×10^5) were injected directly into the tail vein of 7-9 week-old female BALB/c mice. Mice were imaged once per week to follow the growth of metastases. Mice were euthanized 20 days post-injection and lungs were resected for further analysis. Tumor burden in the lung was quantified by manually counting nodules visible on the lung surface. For studies using sulphonamide inhibitors, 4T1 cells (1-5×10^5) were injected as described above (Pacchiano et al, (2011) J Med Chem 54:1896-1902).
Animals were treated 24 hours post inoculation of cells. Three doses were administered by i.p. injection over 6 days and the mice were imaged 24 hours following the third dose of inhibitor. […] Quantification of tumor-derived bioluminescence is shown in 12C. Regions of interest were positioned around metastatic foci and total flux (photons/sec) at the mouse surface was calculated. Data are reported as the mean±s.e.m. N=4 per group. *P<0.05.
4T1 cells were injected directly into the tail vein of BALB/c mice. […] Vehicle and inhibitor were administered by i.p. injection. Shown are representative images of tumor-cell derived bioluminescence in control and inhibitor-treated animals.

In another data set the test system is MDA-231 LM2-4 Luc+ cells. The experiment in a line: 3D Matrigel invasion assay in hypoxia. The settings on record: 4 days in hypoxia. In kind it is cell-based, human. As for the experimental part:
A 3D “on-top” matrigel culture assay was performed as described previously (Lee et al, (2007) Nat Methods 4:359-365). […] Cells were allowed to attach for 45 minutes with side-to-side agitation every 10-15 minutes to prevent clumping of cells in the center of the well. An additional 100 μl/well media containing 10% matrigel was added to the cells and cultures were incubated in hypoxia for 4 days. Images were acquired and cultures were fixed for TUNEL using the “whole culture fixation” methodology outlined in Lee et al, (2007) Nat Methods 4:359-365).
Treatment with novel sulfonamide inhibitors of CAIX attenuates hypoxia-induced invasion of human breast cancer cells grown in 3D Matrigel™ cultures (FIG. 16). Cells were cultured in 3D “on-top” Matrigel™ assays for 4 days in hypoxia in the presence of inhibitors. DMSO-treated cell cultures served as controls. The percentage concentration of DMSO and molar concentration of inhibitors are indicated. Representative phase contrast images are shown.

The test system of data set [1] is MDA-MB-231 LM2-4luc+ tumors. The experiment in a line: ESA+ cancer stem cell population in orthotopic xenograft tumors (FACS). In kind it is in vivo, human. The settings on record: NOD/SCID mice, 38 mg/kg daily i.p., vs vehicle-treated tumors. The source says:
MDA-MB-231 LM2-4^luc+ were implanted orthotopically into NOD/SCID mice. […] (A) Primary tumors were removed, dissociated and ESA+ cell population assessed by FACS analysis. […] (B) Data shown are the mean changes in ESA+ cells±SEM, from 3 mice. **P<0.0224.

The subject of data set [2] is MDA-MB-231 LM2-4Luc+ cells. The settings on record: in vivo.
From the text: For studies involving CAIX depletion, 1×10^7 MDA-MB-231 cells suspended in a 50% Matrigel/PBS solution were implanted subcutaneously in 6-8 week-old female NOD.CB17-prkdc^scid/J mice. […] Therapy was initiated when the tumors reached 200 mm^3. For both models, tumor growth was monitored by caliper measurement.
The initiation and termination of inhibitor treatment is indicated. n=8/group. *P<0.03, **P<0.001.
For data set [3], the target named is T1, hCA IX (Homo sapiens (Human), UniProt Q16790).
The next data set addresses hCA XII (Homo sapiens (Human), UniProt O43570).
The next data set has as its target hCA I (Homo sapiens (Human), UniProt P00915). The settings on record: read-out: KI (nM) Activity hCAI; Table 1.
In data set [4] the target is T1, hCA IX. The experiment in a line: biochemical.
For the next data set, the target named is hCA II (Homo sapiens (Human), UniProt P00918). The settings on record: read-out: Ki (nM) hCA II; Table 3.
[5] abbreviates: read-out: KI (nM) Activity hCAIX, Table 1.
The mark [6] stands for this setting: read-out: KI (nM) Activity hCAXII, Table 1.

hCA I, sequence (P00915 whole entry): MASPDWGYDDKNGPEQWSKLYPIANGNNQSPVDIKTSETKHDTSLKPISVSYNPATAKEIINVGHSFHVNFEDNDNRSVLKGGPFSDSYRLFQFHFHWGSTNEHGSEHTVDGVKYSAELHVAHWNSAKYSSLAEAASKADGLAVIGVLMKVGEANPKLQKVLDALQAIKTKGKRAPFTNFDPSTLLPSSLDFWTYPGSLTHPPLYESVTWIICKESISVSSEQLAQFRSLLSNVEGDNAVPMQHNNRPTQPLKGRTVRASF
hCA XII, sequence (O43570 25-354): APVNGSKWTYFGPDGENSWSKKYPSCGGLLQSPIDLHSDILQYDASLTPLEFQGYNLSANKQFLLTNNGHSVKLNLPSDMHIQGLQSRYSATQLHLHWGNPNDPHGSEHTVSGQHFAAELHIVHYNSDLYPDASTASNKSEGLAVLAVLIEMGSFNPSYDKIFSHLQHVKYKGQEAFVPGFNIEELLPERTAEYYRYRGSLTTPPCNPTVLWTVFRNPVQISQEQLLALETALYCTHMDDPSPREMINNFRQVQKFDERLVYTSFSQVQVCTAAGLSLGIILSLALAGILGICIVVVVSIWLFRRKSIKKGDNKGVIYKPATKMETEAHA
Method for 4T1 primary tumors: For in vitro studies, the compounds were dissolved in DMSO, stored at −80° C. and diluted into culture medium just prior to application. […] For in vivo studies, the MST-017 inhibitor was administered by i.p. injection (first two doses were administered i.v.) at 75 mg/kg and 150 mg/kg 3× per week for 2 weeks. […] The compounds were solubilized in PEG400/ethanol/saline prior to injection. Vehicle components were held constant as inhibitor concentrations were varied.
(§3) Primary tumor growth rates were calculated from caliper measurements using the modified ellipsoid formula (L×W^2)/2.
Animals were inoculated orthotopically with 4T1 cells. Tumors were allowed to establish for 14 days. Mice were injected with the indicated doses of MST-017 3× per week for 2 weeks. Left panel, tumor growth was monitored by caliper-based measurement. […] Vehicle-treated and untreated animals served as controls. *P<0.02, **P<0.01 using a 2-sided Student's t-test, compared to vehicle controls.
The weights of treated animals were monitored as a measure of general inhibitor toxicity. Mice were weighed just prior to each dose of the CAIX inhibitor.
Method for 67NR-derived tumors: For in vivo studies, the MST-017 inhibitor was administered by i.p. injection (first two doses were administered i.v.) at 75 mg/kg and 150 mg/kg 3× per week for 2 weeks. […] The compounds were solubilized in PEG400/ethanol/saline prior to injection. Vehicle components were held constant as inhibitor concentrations were varied.
as §3

Turning to `NS(=O)(=O)c1ccc(CCNC(=S)Nc2ccc(-c3c4ccc(=O)cc-4oc4cc(O)ccc34)c(C(=O)O)c2)cc1` [MST-017], the “change in extracellular pH” value in the data set with 4T1 cells and in the data set on 66cl4 cells was “reversed acidification of the extracellular medium” each time. For the same molecule, the figures for the tumor growth result in the data set with 4T1 primary tumors and in the data set on 67NR-derived tumors were “significant inhibition of tumor growth” and “no significant effect”, respectively. The “weights of treated animals” value in the data set with 4T1 primary tumors and with 67NR-derived tumors was “no significant weight reduction” throughout.
`NS(=O)(=O)c1ccc(NC(=O)Nc2ccc(F)cc2)cc1` [MST-104, 4-{[(4′-Fluorophenyl)carbamoyl]amino}benzenesulfonamide]: the “formation of metastases (tumor-derived bioluminescence)” value in the data set on 4T1 mammary tumor cells (tail vein 4T1 cells, BALB/c mice, daily i.p. for 5 days, imaged 24 h after final dose) is “statistically significant decrease in the formation of metastases”. The hypoxia-induced invasion entry in the data set on MDA-231 LM2-4 Luc+ cells is listed as “inhibit invasion”. Moreover, the “ESA+ cell population” value in [1] is given as “significantly reduced ESA+ cell population”. The tumor growth result in data set [2] is recorded as “significant, dose-dependent inhibition of tumor growth”.
As for `NS(=O)(=O)c1ccc(NC(=O)Nc2c(F)c(F)c(F)c(F)c2F)cc1` [MST-107, 4-{[(Pentafluorophenyl)carbamoyl]amino}benzenesulfonamide], the hypoxia-induced invasion result in the data set with MDA-231 LM2-4 Luc+ cells is on record as “inhibit invasion”. For the same molecule, the inhibition constant Ki (usually a measure of affinity in units of concentration, obtained from inhibition or displacement) was 5.4 nM on hCA IX [3] (setting [5]) and 5.1 nM at hCA XII (setting [6]).
For the molecule `COc1ccccc1NC(=O)Nc1ccc(S(N)(=O)=O)cc1` [MST-108], the Ki stood at 92 nM at hCA I, 465 nM on hCA IX [3] (setting [5]) and 61.2 nM at hCA XII (setting [6]).
For the molecule `CCCCc1ccc(NC(=O)Nc2ccc(S(N)(=O)=O)cc2)cc1` [MST-112, 4-({[(4′-Butylphenyl)amino]carbonyl}amino)benzenesulfonamide], the Ki amounted to 376 nM at hCA IX [3] (setting [5]) and 28.5 nM at hCA XII (setting [6]).
Regarding `CCCCOc1ccc(NC(=O)Nc2ccc(S(N)(=O)=O)cc2)cc1` [MST-113, 4-{[(4′-Butoxyphenyl)carbamoyl]amino}benzenesulfonamide], the inhibition constant Ki at hCA IX [3] (setting [5]) turned out to be 0.8 nM; at hCA XII (setting [6]), 2.5 nM.
`N#Cc1ccc(NC(=O)Nc2ccc(S(N)(=O)=O)cc2)cc1` [MST-115, 4-{[(4′-Cyanophenyl)carbamoyl]amino}benzenesulfonamide]: the Ki is 57 nM at hCA I, 6 nM at hCA IX [3] (setting [5]) and 6.5 nM at hCA XII (setting [6]).
Turning to `N#Cc1ccccc1NC(=O)Nc1ccc(S(N)(=O)=O)cc1` [MST-116, 4-{([(2′-Cyanophenyl)amino]carbonyl)amino}benzenesulfonamide], the inhibitory constant (Ki) on hCA I is 10.9 nM; on hCA IX [3] (setting [5]), 0.3 nM; at hCA XII (setting [6]) it was 4.6 nM.
With `NS(=O)(=O)c1ccc(NC(=O)Nc2ccc(Oc3ccccc3)cc2)cc1` [MST-117, 4-({[(4′-Phenoxyphenyl)amino]carbonyl}amino)benzenesulfonamide], the Ki at hCA I was 604 nM; at hCA IX [3] (setting [5]), 69.1 nM; at hCA XII (setting [6]) it was 7.1 nM.
Turning to `NS(=O)(=O)c1ccc(NC(=O)Nc2cccc([N+](=O)[O-])c2)cc1` [MST-119, 4-{[(3′-Nitrophenyl)carbamoyl]amino}benzenesulfonamide], the “formation of metastases (tumor-derived bioluminescence)” value in the data set on 4T1 mammary tumor cells (i.v. 4T1 cells, three i.p. doses over 6 days, imaged 24 h after third dose) is listed as “reduces the formation of metastases”. In addition, the hypoxia-induced invasion entry in the data set on MDA-231 LM2-4 Luc+ cells is given as “inhibit invasion”. Besides, the inhibitory constant (Ki) at hCA IX [3] (setting [5]) worked out at 0.9 nM.
For the molecule `NS(=O)(=O)c1ccc(NC(=O)NC2CCCC2)cc1` [MST-122, 4-[(Cyclopentylcarbamoyl)amino]benzenesulfonamide], the Ki amounted to 7.3 nM at hCA IX [3] (setting [5]) and 7 nM on hCA XII (setting [6]).
In the case of `NS(=O)(=O)c1cccc(NC(=O)Nc2cccc([N+](=O)[O-])c2)c1` [MST-130, 3-(3-(3′-Nitrophenyl)ureido)benzenesulfonamide], in the data set with MDA-231 LM2-4 Luc+ cells, the hypoxia-induced invasion entry is given as “inhibit invasion”. Moreover, on hCA IX [3] (read-out: Ki (nM) hCA IX, Table 2), the inhibition constant Ki came out at 7.9 nM.
As for `NS(=O)(=O)c1cccc(NC(=O)Nc2c(F)c(F)c(F)c(F)c2F)c1` [MST-133, 3-(3-(Perfluorophenyl)ureido)benzenesulfonamide], the inhibitory constant (Ki) at hCA IX [4] came out at 4.2 nM.
As for `NS(=O)(=O)c1ccc(NC(=O)Nc2cccc(Cl)c2)cc1` [MST-143, 4-(3-(3′-chlorophenyl)ureido)benzenesulfonamide], the Ki at hCA II turned out to be 10 nM; on hCA IX [3] (read-out: Ki (nM) hCA IX, Table 3), 8.4 nM; at hCA XII (read-out: Ki (nM) hCA XII, Table 3) it was 8.5 nM.
